ChEMBL document CHEMBL6134843, “HDAC11 Inhibition as a Potential Therapeutic Strategy for AML: Target Identification, Lead Discovery, Antitumor Potency, and Mechanism Investigation” (J Med Chem, 2025)
Calls of active or inactive are those of the source. The rule behind the calls is not given here.

What was measured:
Histone deacetylase 11 = molecular target: T1, Histone deacetylase 11 (Homo sapiens, UniProt Q96DB2); test: Inhibition of full length human recombinant HDAC11 (1 to 347 end residues) expressed in Sf9 cells using AcetylETDKmyr-AMC as substrate preincubated with enzyme for 1 hr followed by substrate addition and measured after 30 mins by fluorescence analysis
T1 sequence (Q96DB2 whole entry): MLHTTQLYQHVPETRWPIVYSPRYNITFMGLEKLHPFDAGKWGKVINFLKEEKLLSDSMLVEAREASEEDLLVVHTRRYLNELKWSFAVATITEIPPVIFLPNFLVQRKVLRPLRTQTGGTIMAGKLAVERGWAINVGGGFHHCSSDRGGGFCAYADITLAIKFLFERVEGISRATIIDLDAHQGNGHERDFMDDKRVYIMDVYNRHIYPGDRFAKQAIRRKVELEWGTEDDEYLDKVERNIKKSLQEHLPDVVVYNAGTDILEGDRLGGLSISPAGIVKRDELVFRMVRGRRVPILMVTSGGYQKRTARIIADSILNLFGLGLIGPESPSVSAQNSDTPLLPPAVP

[1] = molecular target: T2, Protein deacetylase HDAC6 (Homo sapiens, UniProt Q9UBN7); test: Inhibition of N-terminal GST-tagged full length human recombinant HDAC6 (1 to 1215 end residues) expressed in Sf9 cells using Boc-Lys-(acetyl)-AMC as substrate preincubated with enzyme for 1 hr followed by substrate addition and measured after 30 mins by fluorescence analysis
T2 sequence (Q9UBN7 whole entry): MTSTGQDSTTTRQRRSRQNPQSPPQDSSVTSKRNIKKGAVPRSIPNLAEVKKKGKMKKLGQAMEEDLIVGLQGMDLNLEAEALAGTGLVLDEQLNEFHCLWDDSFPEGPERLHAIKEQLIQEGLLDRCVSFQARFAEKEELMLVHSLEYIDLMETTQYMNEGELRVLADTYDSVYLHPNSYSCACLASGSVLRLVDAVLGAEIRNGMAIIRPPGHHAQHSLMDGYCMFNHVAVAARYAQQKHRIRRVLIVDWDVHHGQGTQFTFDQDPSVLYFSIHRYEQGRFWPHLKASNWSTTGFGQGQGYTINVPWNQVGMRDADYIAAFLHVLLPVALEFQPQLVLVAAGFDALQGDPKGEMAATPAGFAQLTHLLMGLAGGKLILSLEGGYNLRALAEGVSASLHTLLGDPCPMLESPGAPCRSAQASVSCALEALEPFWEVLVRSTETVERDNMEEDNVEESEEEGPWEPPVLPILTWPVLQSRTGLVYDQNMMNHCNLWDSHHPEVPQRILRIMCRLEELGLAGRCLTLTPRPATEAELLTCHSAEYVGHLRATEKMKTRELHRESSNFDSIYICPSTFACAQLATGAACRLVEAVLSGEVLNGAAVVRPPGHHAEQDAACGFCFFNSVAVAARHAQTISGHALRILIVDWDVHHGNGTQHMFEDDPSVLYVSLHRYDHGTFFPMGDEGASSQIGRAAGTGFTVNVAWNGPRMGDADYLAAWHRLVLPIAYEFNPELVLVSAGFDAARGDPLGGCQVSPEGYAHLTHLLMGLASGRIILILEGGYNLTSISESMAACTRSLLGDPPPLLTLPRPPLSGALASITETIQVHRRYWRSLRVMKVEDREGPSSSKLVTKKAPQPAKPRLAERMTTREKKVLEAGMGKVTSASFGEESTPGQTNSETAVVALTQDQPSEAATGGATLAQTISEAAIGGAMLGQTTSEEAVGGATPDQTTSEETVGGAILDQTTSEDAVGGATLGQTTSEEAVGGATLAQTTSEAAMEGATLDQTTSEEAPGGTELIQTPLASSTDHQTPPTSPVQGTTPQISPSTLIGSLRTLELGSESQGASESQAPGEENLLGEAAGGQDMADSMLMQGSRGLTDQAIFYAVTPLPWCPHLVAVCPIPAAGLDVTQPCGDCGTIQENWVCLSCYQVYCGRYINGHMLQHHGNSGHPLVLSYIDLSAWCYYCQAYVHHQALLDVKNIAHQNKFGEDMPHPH

Histone deacetylase 1 = Histone deacetylase 1 (Homo sapiens, UniProt Q13547); test: Inhibition of C-terminal 6xHis/FLAG-tagged full length human recombinant HDAC1 (1 to 482 end residues) expressed in Sf9 cells using Boc-Lys-(acetyl)-AMC as substrate preincubated with enzyme for 1 hr followed by substrate addition and measured after 30 mins by fluorescence analysis
Histone deacetylase 4 = Histone deacetylase 4 (Homo sapiens, UniProt P56524); test: Inhibition of N-terminal GST-tagged C-terminal His-tagged human HDAC4 (627 to 1084 end residues) expressed in baculovirus expression system in Sf9 cells using Boc-Lys-(trifluoroacetyl)-AMC as substrate preincubated with enzyme for 1 hr followed by substrate addition and measured after 30 mins by fluorescence analysis
Histone deacetylase 8 = molecular target: T3, Histone deacetylase 8 (Homo sapiens, UniProt Q9BY41); test: Inhibition of C-terminal His-tagged full length human recombinant HDAC8 (1 to 377 end residues) expressed in Sf9 cells using Boc-Lys-(trifluoroacetyl)-AMC as substrate preincubated with enzyme for 1 hr followed by substrate addition and measured after 30 mins by fluorescence analysis
T3 sequence (Q9BY41 whole entry): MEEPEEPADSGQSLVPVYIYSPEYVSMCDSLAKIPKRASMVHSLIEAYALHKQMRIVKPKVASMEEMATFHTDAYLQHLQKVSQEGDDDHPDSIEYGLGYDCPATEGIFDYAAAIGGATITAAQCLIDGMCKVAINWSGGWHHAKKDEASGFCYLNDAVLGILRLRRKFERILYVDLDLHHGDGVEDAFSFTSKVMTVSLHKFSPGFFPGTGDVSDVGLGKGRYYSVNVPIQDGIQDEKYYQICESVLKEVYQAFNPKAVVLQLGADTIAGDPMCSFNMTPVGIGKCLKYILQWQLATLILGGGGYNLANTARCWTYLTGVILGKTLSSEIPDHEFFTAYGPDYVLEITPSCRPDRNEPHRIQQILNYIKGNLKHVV

U-937 [2] = test: Antitumor activity against human U-937 cells assessed as cell growth inhibition incubated for 2 days by CCK-8 assay; settings: U-937, 48 h
OCI-AML2 [3] = test: Antiproliferative activity against human OCI-AML2 cells assessed as cell growth inhibition incubated for 2 days by CCK-8 assay; settings: OCI-AML2, 48 h
[4] = molecular target: T4, Histone deacetylase 11 (Homo sapiens) (UniProt Q96DB2); test: Inhibition of HDAC11 in human U-937 cells assessed as increase in SHMT2 fatty acylation level in presence of Alk14 at 100 uM incubated for 6 hrs by Western blot analysis; assay type: cell-based
T4 sequence (whole entry): T1 sequence (Q96DB2 whole entry)

OCI-AML-3 = test: Induction of cell apoptosis in human OCI-AML-3 cells at 100 uM incubated for 48 hrs by Annexin V/DAPI staining based flow cytometry analysis; assay type: functional
THP-1 = test: Induction of cell apoptosis in human THP-1 cells at 100 uM incubated for 48 hrs by Annexin V/DAPI staining based flow cytometry analysis; assay type: functional
U-937 [5] = test: Induction of ferroptosis in human U-937 cells assessed as increase in lipid peroxidation accumulation at 100 uM incubated for 48 hrs by C11-BODIPY 581/591 staining based flow cytometry analysis; assay type: functional, cell-based
U-937 [6] = test: Induction of ferroptosis in human U-937 cells assessed as increase in ferrous ion accumulation at 5 uM incubated for 48 hrs by RhoNox-1 staining based flow cytometry analysis; assay type: functional, cell-based
U-937 [7] = test: Induction of ferroptosis in human U-937 cells assessed as increase in ferrous ion accumulation at 100 uM incubated for 48 hrs by RhoNox-1 staining based flow cytometry analysis; assay type: functional, cell-based
OCI-AML2 [8] = test: Induction of ferroptosis in human OCI-AML2 cells assessed as increase in ferrous ion accumulation at 5 uM incubated for 48 hrs by RhoNox-1 staining based flow cytometry analysis; assay type: functional, cell-based
OCI-AML2 [9] = test: Induction of ferroptosis in human OCI-AML2 cells assessed as increase in ferrous ion accumulation at 100 uM incubated for 48 hrs by RhoNox-1 staining based flow cytometry analysis; assay type: functional, cell-based
[10] = Antitumor activity against mouse MLL-AF9 cells allografted in female C57BL/6 mouse model assessed as GFP positive leukemic cells in peripheral blood at 50 mg/kg, ip administered once daily for 26 days by FITC staining based analysis (reference value: 30.6 %); assay type: functional; settings: time 26 day
[11] = Antitumor activity against mouse MLL-AF9 cells allografted in female C57BL/6 mouse model assessed as GFP positive leukemic cells in peripheral blood at 50 mg/kg, ip administered once daily for 32 days by FITC staining based analysis (reference value: 72.5 %); assay type: functional; settings: time 32 day

Histone deacetylase 4, sequence (P56524 whole entry): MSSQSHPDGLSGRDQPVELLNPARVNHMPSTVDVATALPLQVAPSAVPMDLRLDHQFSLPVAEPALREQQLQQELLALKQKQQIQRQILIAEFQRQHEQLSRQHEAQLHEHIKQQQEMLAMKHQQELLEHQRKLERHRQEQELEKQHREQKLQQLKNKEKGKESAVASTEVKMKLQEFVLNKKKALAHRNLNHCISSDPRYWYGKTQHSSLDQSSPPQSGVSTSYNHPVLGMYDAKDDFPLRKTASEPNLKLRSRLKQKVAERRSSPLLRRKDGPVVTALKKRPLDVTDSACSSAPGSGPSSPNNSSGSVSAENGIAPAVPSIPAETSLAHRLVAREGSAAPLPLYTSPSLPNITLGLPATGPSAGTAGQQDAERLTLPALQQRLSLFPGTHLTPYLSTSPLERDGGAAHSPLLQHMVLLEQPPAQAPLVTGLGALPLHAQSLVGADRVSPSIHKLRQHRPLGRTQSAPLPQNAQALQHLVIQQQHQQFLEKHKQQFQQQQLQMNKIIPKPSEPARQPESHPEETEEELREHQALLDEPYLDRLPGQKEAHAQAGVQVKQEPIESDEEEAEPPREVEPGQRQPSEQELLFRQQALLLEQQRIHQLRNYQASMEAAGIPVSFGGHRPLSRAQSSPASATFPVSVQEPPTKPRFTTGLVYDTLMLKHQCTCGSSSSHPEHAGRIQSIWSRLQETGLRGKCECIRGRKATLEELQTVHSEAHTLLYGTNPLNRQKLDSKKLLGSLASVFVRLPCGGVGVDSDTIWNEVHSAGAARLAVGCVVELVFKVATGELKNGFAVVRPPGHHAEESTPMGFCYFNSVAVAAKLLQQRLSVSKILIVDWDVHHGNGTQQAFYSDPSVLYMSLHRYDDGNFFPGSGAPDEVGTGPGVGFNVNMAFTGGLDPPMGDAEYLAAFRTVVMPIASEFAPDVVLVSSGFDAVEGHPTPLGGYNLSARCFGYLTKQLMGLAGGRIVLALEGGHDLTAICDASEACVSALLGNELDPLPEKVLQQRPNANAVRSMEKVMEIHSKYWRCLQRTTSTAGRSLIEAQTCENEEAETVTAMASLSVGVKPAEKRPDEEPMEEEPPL
Histone deacetylase 1, sequence (Q13547 whole entry): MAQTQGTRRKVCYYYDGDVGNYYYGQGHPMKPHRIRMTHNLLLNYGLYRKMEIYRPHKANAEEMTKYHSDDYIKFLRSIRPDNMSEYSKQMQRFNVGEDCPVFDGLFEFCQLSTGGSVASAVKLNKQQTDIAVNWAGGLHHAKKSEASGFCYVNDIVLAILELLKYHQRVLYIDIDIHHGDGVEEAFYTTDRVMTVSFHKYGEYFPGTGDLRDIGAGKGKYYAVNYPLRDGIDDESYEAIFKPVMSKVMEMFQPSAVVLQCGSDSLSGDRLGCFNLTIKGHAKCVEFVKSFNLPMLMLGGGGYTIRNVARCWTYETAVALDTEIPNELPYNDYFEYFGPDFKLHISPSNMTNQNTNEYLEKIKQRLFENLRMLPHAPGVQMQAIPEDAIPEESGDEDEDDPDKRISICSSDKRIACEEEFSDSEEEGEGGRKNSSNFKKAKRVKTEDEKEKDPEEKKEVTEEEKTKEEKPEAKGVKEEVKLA

IC50 (Histone deacetylase 11) [µM]	IC50 [1] [µM]	IC50 (Histone deacetylase 1) [µM]	IC50 (Histone deacetylase 4) [µM]	IC50 (Histone deacetylase 8) [µM]	IC50 (U-937 [2]) [µM]	IC50 (OCI-AML2 [3]) [µM]	inhibition [4]	SMILES	Activity (OCI-AML-3)	Activity (THP-1)	Activity (U-937 [5])	Activity (U-937 [6])	Activity (U-937 [7])	Activity (OCI-AML2 [8])	Activity (OCI-AML2 [9])	Activity [10] [%]	Activity [11] [%]
0.37	77.6	92.5	> 100	> 100	~150	~150	Active	CCCCCCCCCCCCCCCCNNC(=O)c1cccs1	Active	Active	Active	Active	Active	Active	Active	–	–
–	–	–	–	–	–	–	–	Nc1ccn([C@@H]2O[C@H](CO)[C@@H](O)[C@@H]2O)c(=O)n1 [CYTARABINE]	–	–	–	–	–	–	–	5.81	13.2
–	–	–	> 100	–	–	–	–	O=C(NO)c1cccc2[nH]c(C#Cc3ccccc3)cc12	–	–	–	–	–	–	–	–	–
